Source: patent US6531493B1, “3-cyclopropylmethoxy-4-difluoromethoxy-N-(3,5-dichloropyrid-4-yl)benzamide in the treatment of multiple sclerosis” (Altana Pharma AG, priority 1999, dated 2003)

System: Experimental autoimmune encephalomyelitis (EAE) in female SJL mice
Test: Experimental autoimmune encephalomyelitis (EAE) induced with PLP139-151, daily clinical scoring
Type: in vivo
Conditions: for Number of sick animals: 2 × 5 mg/kg p.o., 2× daily up to day 21, n=10
[1] = oral administration, compared with untreated controls

Question: Which “Number of sick animals” value (day 2 after EAE induction) does the source give for `O=C(Nc1c(Cl)cncc1Cl)c1ccc(OC(F)F)c(OCC2CC2)c1` [substance A, 3-cyclopropylmethoxy-4-difluoromethoxy-N-(3,5-dichloropyrid-4-yl)benzamide] here?
Answer: 0

Question: What about the “Number of sick animals” value (day 4 after EAE induction) of the same compound?
Answer: 0

Question: And the “Number of sick animals” value (day 6 after EAE induction)?
Answer: 0

Question: What about the “Number of sick animals” value (day 8 after EAE induction) of the same compound?
Answer: 0

Question: What about the “Number of sick animals” value (day 10 after EAE induction) of the same compound?
Answer: 0

Question: What about the “Number of sick animals” value (day 12 after EAE induction) of the same compound?
Answer: 0

Question: And the “Number of sick animals” value (day 14 after EAE induction)?
Answer: 1

Question: And the “Number of sick animals” value (day 16 after EAE induction)?
Answer: 3

Question: What about the “Number of sick animals” value (day 18 after EAE induction) of the same compound?
Answer: 3

Question: What about the “Number of sick animals” value (day 20 after EAE induction) of the same compound?
Answer: 3

Question: What about the “Number of sick animals” value (day 22 after EAE induction) of the same compound?
Answer: 3

Question: What about the “Number of sick animals” value (day 24 after EAE induction) of the same compound?
Answer: 4

Question: And the “Number of sick animals” value (day 26 after EAE induction)?
Answer: 3

Question: And the “Number of experimental animals with no MS-analogous symptomatology at all” value (of the 10 treated animals, monitoring period up to the 26th day after EAE induction)?
Answer: 6

Question: And the “Effect on onset of the MS-analogous symptomatology” value [1]?
Answer: delay in the onset of the MS-analogous symptomatology

Question: And the “Effect on the number of animals which suffer from the experimental encephalitis” value [1]?
Answer: marked decrease in the number of animals
